Test results: PMC3603284 (Therapeutic drug monitoring, 2013)

Test: Week 2 plasma trough protease inhibitor concentration
Set-up: species or system human
Details: in vivo

Row | SMILES | decrease in the mean trough concentration per C allele (human, 2 weeks) [%] | association of SLCO1B1 521T→C with week 2 trough concentration | week 2 trough measures below the assay limit of quantification (200 ng/ml) (human, 2 weeks) [%]
1 | CC(C)CN(C[C@@H](O)[C@H](Cc1ccccc1)NC(=O)O[C@H]1CCOC1)S(=O)(=O)c1ccc(N)cc1 [amprenavir] | 35 | – | –
2 | CC(C)(C)NC(=O)[C@@H]1C[C@@H]2CCCC[C@@H]2CN1C[C@@H](O)[C@H](Cc1ccccc1)NC(=O)[C@H](CC(N)=O)NC(=O)c1ccc2ccccc2n1 [saquinavir] | – | no significant association | –
3 | CC(C)c1nc(CN(C)C(=O)N[C@H](C(=O)N[C@@H](Cc2ccccc2)C[C@H](O)[C@H](Cc2ccccc2)NC(=O)OCc2cncs2)C(C)C)cs1 [ritonavir] | – | no significant association | 86
